# According to patent US12239711B2, “Cereblon ligands and bifunctional compounds comprising the same” (Arvinas Operations, Inc., priority 2014, dated 2025):
# pIC50: −log10 of the molar value. Like-named read-outs stand apart in the source and are kept apart here.
# Experiments:
# [1] = system: estrogen responsive element/promoter/luciferase reporter gene; experiment: ERE Luciferase Assay in T47D-KBluc cells; format: cell-based, human; settings: 24 hours, luciferase activity, read-out: Target Engagement IC50
# Experimental: 1. ERE Luciferase Assay for Compounds in Table 5.
# T47D-KBluc cells (ATCC® #CRL_2865, T47D human breast cancer cells stably transfected with estrogen responsive element/promoter/luciferase reporter gene) were seeded into 96-well white opaque plates in RPMI growth medium supplemented with 10% fetal bovine serum (FBS) and allowed to adhere overnight in a 37° C. humidified incubator. The following day, cells were treated with PROTACs in a 12-point concentration curve (top final concentration of 300 nM with subsequent concentrations being 3-fold less with 2 pM being the lowest concentration in the assay). Each PROTAC was tested independently in two experiments on 96-well plates. After 24 hours, media was removed and lysis buffer was added to the wells. Following lysis, Bright-Glo™ Luciferase Assay Substrate (Promega, Madison WI) was added and the luciferase activity was measured using a Cytation 3 plate reader (BioTek™, Winooski, VT). Each compound was assayed in duplicate and the activity was calculated as IC50 using GraphPad Prism software (San Diego, CA).
# [2] = target: T1, Estrogen Receptor-Alpha (ERα) (Homo sapiens, UniProt P03372); experiment: Estrogen Receptor-Alpha (ERα) degradation assay in MCF-7 cells (western blot / In-Cell Western); format: cell-based; settings: for Dmax: MCF7, read-out: ER Dmax; for DC50: read-out: ER DC50
# T1 construct: endogenous in cells; host or cells: MCF-7 (MCF7) cells
# T1 sequence (P03372 1-595): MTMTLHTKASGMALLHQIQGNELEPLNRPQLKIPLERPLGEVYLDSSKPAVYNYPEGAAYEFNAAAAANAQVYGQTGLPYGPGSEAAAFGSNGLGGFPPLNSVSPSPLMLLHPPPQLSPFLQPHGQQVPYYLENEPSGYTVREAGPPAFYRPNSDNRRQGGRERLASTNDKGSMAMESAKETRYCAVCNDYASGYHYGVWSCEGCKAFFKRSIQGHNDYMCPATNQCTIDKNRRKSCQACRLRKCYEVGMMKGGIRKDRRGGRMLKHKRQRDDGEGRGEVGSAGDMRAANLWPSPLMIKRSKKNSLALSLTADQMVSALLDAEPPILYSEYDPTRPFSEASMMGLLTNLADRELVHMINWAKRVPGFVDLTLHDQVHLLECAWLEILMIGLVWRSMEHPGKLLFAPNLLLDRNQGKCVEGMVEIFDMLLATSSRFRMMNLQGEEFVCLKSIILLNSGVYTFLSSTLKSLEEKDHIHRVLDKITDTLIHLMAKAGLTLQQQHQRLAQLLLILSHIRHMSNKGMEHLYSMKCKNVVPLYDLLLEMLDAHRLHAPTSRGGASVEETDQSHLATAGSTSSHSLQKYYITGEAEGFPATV
# Experimental: 2. Estrogen Receptor-Alpha (ERα) Degradation Assay in MCF-7 Cells Using Western Blot Method for Table 5.
# The exemplary novel ERα degraders were assessed for their activity in degrading ERα in MCF-7 cells via western blot. The assay was carried out in the presence of 10% FBS or high percentage of human or mouse serum. Protocols of the western blot assay are described below.
# MCF7 cells were grown in DMEM/F12 with 10% FBS and seeded at 24,000 cells per well in 100 μl into 96-well clear tissue culture plates. The following day, the cells were treated with PROTACs in a […] concentration curve with 100 nM being the top concentration and serial dilutions to make the other concentrations (30 nM, 10 nM, 3 nM, 1 nM, and 0.3 nM). At all concentrations, 0.01% DMSO is the final concentration in the well. The following day, the plates are aspirated, washed with 50 μl of cold PBS. The cells are lysed with 50 μl/well 4° C. Cell Lysis Buffer (Catalog #9803; Cell Signaling Technology, Danvers, MA) (20 mM Tris-HCL (pH 7.5), 150 mM NaCl, 1 mM Na2EDTA, 1 mM EGTA, 1% Triton, 2.5 mM sodium pyrophosphate, 1 mM B-glycerophosphate, 1 mM sodium vanadate, 1 ug/ml leupeptin). Lysates were clarified at 16,000×g for 10 minutes, and 2 μg of protein was subjected to SDS-PAGE analysis and followed by immunoblotting according to standard protocols. The antibodies used were ERα (Cell Signaling Technologies Catalog #8644), and Tubulin (Sigma Catalog #T9026; St. Louis, MO). Detection reagents were Clarity Western ECL substrate (Bio-Rad Catalog #170-5060; Hercules, CA).
# Alternatively, MCF7 cells were grown in DMEM/F12 with 10% FBS and seeded at 24,000 cells per well in 500 μl in 24-well clear tissue culture plates. The following day, the cells were treated with PROTACs in a 5-point concentration curve (100 nM, 33 nM, 11 nM, 3.7 nM, and 1.2 nM) in the presence of 0.01% DMSO. After 72 hours, the wells are aspirated and washed with 500 μl of PBS. The cells are lysed with 100 μl/well 4° C. Cell Lysis Buffer (Catalog #9803; Cell Signaling Technology, Danvers, MA) (20 mM Tris-HCL (pH 7.5), 150 mM NaCl, 1 mM Na2EDTA, 1 mM EGTA, 1% Triton, 2.5 mM sodium pyrophosphate, 1 mM B-glycerophosphate, 1 mM sodium vanadate, 1 ug/ml leupeptin). Lysates were clarified at 16,000×g for 10 minutes, and 2 μg of protein was subjected to SDS-PAGE analysis and followed by immunoblotting according to standard protocols. The antibodies used were ERα (Cell Signaling Technologies Catalog #8644), and Tubulin (Sigma Catalog #T9026; St. Louis, MO). Detection reagents were Clarity Western ECL substrate (Bio-Rad Catalog #170-5060; Hercules, CA).
# 3. Estrogen Receptor-Alpha (ERα) Degradation Assay Using In-Cell Western™ Assay for Table 5.
# Degradation of ERα by claimed compounds were determined in MCF7 cells using an In-Cell Western™ assay. Briefly, MCF7 cells were plated in 96-well plates (2000 cells per well in 100 μl media) and incubated at 37° C. under an atmosphere of 5% CO2 in a humidified incubator overnight. One-hundred (100) μl of media containing test compound (at 2× concentration) was added to the appropriate wells to provide 11 serially decreasing concentrations (top final concentration, 1 μM then 3-fold less for the next 10 concentrations); a vehicle control (DMSO) was also added for each compound. For each experiment, all compounds were assayed in duplicate plates. Cells were then incubated for 3 or 5 days in the above-mentioned environment. The assay was terminated by removal of media, a single wash with ice-cold PBS and the addition of 50 μl paraformaldehyde (PFA: 4% in PBS). After 15 minutes in PFA at room temperature, the cells were permeabilized in Tris-phosphate-buffered saline with Tween (0.1%) (TBST) supplemented with Triton X-100 (0.5%) for 15 minutes. Cells were then blocked in BSA (TBST with BSA, 3%) for one hour. […]
pIC50 ([1]; Homo sapiens),Dmax [2] [%],DC50 [2] [nM],Structure (SMILES),pIC50 [1],ER Dmax [2]
8.70,50 to 75,1 to 10,"COCCOc1c(N2CCN(CC3CCN(c4ccc([C@@H]5c6ccc(O)cc6CC[C@@H]5c5ccccc5)cc4)CC3)CC2)ccc2c1CN(C1CCC(=O)NC1=O)C2=O (stereo partly drawn) [compound 11, 3-[5-[4-[[1-[4-[(1R,2S)-6-hydroxy-2-phenyl-tetralin-1-yl]phenyl]-4-piperidyl]methyl]piperazin-1-yl]-4-(2-methoxyethoxy)-1-oxo-isoindolin-2-yl]piperidine-2,6-dione]",–,–
9.00,≥ 75,< 1,"COc1cc(N2CCN(CCCC(F)(F)COc3ccc([C@@H]4c5ccc(O)cc5CC[C@@H]4c4ccccc4)cc3)CC2)cc2c1C(=O)N(C1CCC(=O)NC1=O)C2 (stereo partly drawn) [compound 12, 3-[5-[4-[4,4-difluoro-5-[4-[(1R,2S)-6-hydroxy-2-phenyl-tetralin-1-yl]phenoxy]pentyl]piperazin-1-yl]-7-methoxy-1-oxo-isoindolin-2-yl]piperidine-2,6-dione]",–,–
9.43,≥ 75,< 1,"COc1cc(N2CCN(CCCCCOc3ccc([C@@H]4c5ccc(O)cc5CC[C@@H]4c4ccccc4)cc3)CC2)cc2c1C(=O)N([C@@H]1CCC(=O)NC1=O)C2 [compound 13, (3R)-3-[5-[4-[5-[4-[(1R,2S)-6-hydroxy-2-phenyl-tetralin-1-yl]phenoxy]pentyl]piperazin-1-yl]-7-methoxy-1-oxo-isoindolin-2-yl]piperidine-2,6-dione]",–,–
9.31,≥ 75,< 1,"COc1cc(N2CCN(CCCCCOc3ccc([C@@H]4c5ccc(O)cc5CC[C@@H]4c4ccccc4)cc3)CC2)cc2c1C(=O)N([C@H]1CCC(=O)NC1=O)C2 [compound 14, (3S)-3-[5-[4-[5-[4-[(1R,2S)-6-hydroxy-2-phenyl-tetralin-1-yl]phenoxy]pentyl]piperazin-1-yl]-7-methoxy-1-oxo-isoindolin-2-yl]piperidine-2,6-dione]",–,–
8.77,≥ 75,< 1,"COc1cc(N2CCN(CC3CCN(c4ccc([C@@H]5c6ccc(O)cc6CC[C@@H]5c5ccccc5)cc4)CC3)CC2)cc2c1C(=O)N(C1CCC(=O)NC1=O)C2 (stereo partly drawn) [compound 15, 3-[5-[4-[[1-[4-[(1R,2S)-6-hydroxy-2-phenyl-tetralin-1-yl]phenyl]-4-piperidyl]methyl]piperazin-1-yl]-7-methoxy-1-oxo-isoindolin-2-yl]piperidine-2,6-dione]",–,–
8.82,50 to 75,1 to 10,"COc1cc(N2CCN(Cc3cccc(COc4ccc([C@@H]5c6ccc(O)cc6CC[C@@H]5c5ccccc5)cc4)n3)CC2)cc2c1C(=O)N(C1CCC(=O)NC1=O)C2 (stereo partly drawn) [compound 17, 3-[5-[4-[[6-[[4-[(1R,2S)-6-hydroxy-2-phenyl-tetralin-1-yl]phenoxy]methyl]-2-pyridyl]methyl]piperazin-1-yl]-7-methoxy-1-oxo-isoindolin-2-yl]piperidine-2,6-dione]",–,–
7.76,50 to 75,1 to 10,"COc1cc(N2CCN(CC3CCN(c4c(F)cc([C@H]5c6ccc(O)cc6CC[C@H]5c5ccccc5)cc4F)CC3)CC2)cc2c1C(=O)N(C1CCC(=O)NC1=O)C2 (stereo partly drawn) [compound 18, 3-(5-{4-[(1-{2,6-difluoro-4-[(1S,2R)-6-hydroxy-2-phenyl-1,2,3,4-tetrahydronaphthalen-1-yl]phenyl}piperidin-4-yl)methyl]piperazin-1-yl}-7-methoxy-1-oxo-2,3-dihydro-1H-isoindol-2-yl)piperidine-2,6-dione]",–,–
8.35,≥ 75,1 to 10,"COc1cc(N2CCN(CC3CCN(c4c(F)cc([C@@H]5c6ccc(O)cc6CC[C@@H]5c5ccccc5)cc4F)CC3)CC2)cc2c1C(=O)N(C1CCC(=O)NC1=O)C2 (stereo partly drawn) [compound 19, 3-(5-(4-((1-(2,6-difluoro-4-((1R,2S)-6-hydroxy-2-phenyl-1,2,3,4-tetrahydronaphthalen-1-yl)phenyl)piperidin-4-yl)methyl)piperazin-1-yl)-7-methoxy-1-oxoisoindolin-2-yl)piperidine-2,6-dione]",–,–
8.92,50 to 75,1 to 10,"O=C1CCC(N2Cc3cc(N4CCN(CCCCCOc5ccc([C@@H]6c7ccc(O)cc7CC[C@@H]6c6ccccc6)cc5)CC4)cc(OC(F)F)c3C2=O)C(=O)N1 (stereo partly drawn) [compound 20, 3-[7-(difluoromethoxy)-5-[4-[5-[4-[(1R,2S)-6-hydroxy-2-phenyl-tetralin-1-yl]phenoxy]pentyl]piperazin-1-yl]-1-oxo-isoindolin-2-yl]piperidine-2,6-dione]",–,–
8.60,50 to 75,1 to 10,"O=C1CCC(N2Cc3cc(N4CCN(CCCC(F)(F)COc5ccc([C@@H]6c7ccc(O)cc7CC[C@@H]6c6ccccc6)cc5)CC4)cc(OC(F)F)c3C2=O)C(=O)N1 (stereo partly drawn) [compound 21, 3-[5-[4-[4,4-difluoro-5-[4-[(1R,2S)-6-hydroxy-2-phenyl-tetralin-1-yl]phenoxy]pentyl]piperazin-1-yl]-7-(difluoromethoxy)-1-oxo-isoindolin-2-yl]piperidine-2,6-dione]",–,–

Structure (SMILES),pIC50 ([1]; Homo sapiens),Dmax [2] [%],DC50 [2] [nM],pIC50 [1],ER Dmax [2]
"COc1cc(N2CCN(C3CC4CC(Oc5ccc([C@@H]6c7ccc(O)cc7CC[C@@H]6c6ccc(F)cc6)cc5)CC4C3)CC2)cc2c1C(=O)N(C1CCC(=O)NC1=O)C2 (stereo partly drawn) [compound 16, 3-[5-[4-[5-[4-[(1R,2S)-2-(4-fluorophenyl)-6-hydroxy-tetralin-1-yl]phenoxy]-1,2,3,3a,4,5,6,6a-octahydropentalen-2-yl]piperazin-l-yl]-7-methoxy-1-oxo-isoindolin-2-yl]piperidine-2,6-dione]",–,–,< 1,9.09,B (50 <= B < 75)
